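Cells were grown in 96-well plates and exposed to each compound for 48 hours at five concentrations; endpoints were interpolated linearly between bracketing concentrations, or set to the highest concentration if not reached. GI50 marks 50% less growth. At the TGI there is no net growth.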
Key:
Test in all cases: NCI tumour cell line growth inhibition, 48 h
[1] = test system: HCT-116 colon
[2] = test system: HOP-62 NSCLC
[3] = test system: NCI-H23 lung
[4] = test system: OVCAR-8 ovarian
[5] = test system: RPMI-8226 leukemia
[6] = test system: SF-268 CNS
[7] = test system: SN12C renal
[8] = test system: SNB-75 CNS
[9] = test system: SW-620 colon
[10] = test system: TK-10 renal

| SMILES | TGI [1] [µM] | TGI [2] [µM] | TGI [3] [µM] | TGI [4] [µM] | TGI [5] [µM] | TGI [6] [µM] | TGI [7] [µM] | TGI [8] [µM] | TGI [9] [µM] | TGI [10] [µM] | GI50 [1] [µM] | GI50 [2] [µM] | GI50 [3] [µM] | GI50 [4] [µM] | GI50 [5] [µM] | GI50 [6] [µM] | GI50 [7] [µM] | GI50 [8] [µM] | GI50 [9] [µM] | GI50 [10] [µM] |
| --- | --- | --- | --- | --- | --- | --- | --- | --- | --- | --- | --- | --- | --- | --- | --- | --- | --- | --- | --- | --- |
| CCOC(=O)NC1CC2CCC1(OC)C=C2C (stereo not given) | > 100 | > 100 | > 100 | > 100 | > 100 | > 100 | > 100 | > 100 | > 100 | > 100 |  |  |  |  |  |  |  |  |  |  |
| CCN(CC)CC[n+]1cc2cc(OC)c(OC)cc2c2ccc3cc4c(cc3c21)OCO4 | 1.66 | 1.93 | 2.3 | 2.11 | 1.73 | 2.71 | 1.21 | 2.56 | 2.36 | 5.28 | 0.404 | 0.354 | 0.618 | 0.314 | 0.303 | 0.386 | 0.309 | 0.64 | 0.442 | 1.81 |
| CCCCCCCCCCCCC(CCCCCCCCCCCC)OP(=O)(O)O | > 100 | > 100 | > 100 | > 100 | > 100 | > 100 | > 100 | > 100 | > 100 | > 100 |  |  |  |  |  |  |  |  |  |  |
| Fc1cccc(-c2[nH]nc3nc(Nc4cccnc4)sc23)c1 | 51.1 | > 100 | > 100 | > 100 | > 100 | > 100 | > 100 | > 100 | > 100 | > 100 | 0.595 | > 100 | 23 | 15.7 | 5.79 | > 100 | > 100 | > 100 | 35.6 | 31.2 |
| C=CCSSc1ncnc2c1ncn2C1OC(CO)C(O)C1O (stereo not given) | > 45.4 | > 100 | > 74.2 | > 42.9 | 6.47 | > 58.1 | > 100 | 96.9 | 23.2 | > 42.3 | 2.96 | 1.78 | 3.94 | 2.87 | 1.15 | 5.05 | 11.3 | 0.731 | 4.07 | 0.598 |
| CC[CH2][Sn]([CH2]CC)([O]C(=O)Cc1ccc(F)cc1)[O][Sn]([CH2]CC)([CH2]CC)[O]C(=O)Cc1ccc(F)cc1 | 0.796 | 2.69 | 0.276 | 1.41 |  | 0.606 | 1 | 1.43 | 0.22 | 0.393 | 0.218 | 1.25 | 0.0539 | 0.278 | 0.0382 | 0.13 | 0.262 | 0.27 | 0.0773 | 0.125 |
| CCCCCCCCCCCCCCCCCC[N+](C)(C)Cc1ccc(C[N+](C)(C)CCCCCCCCCCCCCCCCCC)cc1 | 32.5 | 34.7 | 18 | 30.5 | 48.7 | 43.1 | 30.1 | 26 | > 100 | 28.6 |  |  |  |  |  |  |  |  |  |  |
| N#Cc1nn(-c2cc(=O)[nH]c3ccc(Br)cc23)c(N)c1C#N | > 100 | > 100 | > 100 | > 100 | > 100 | > 100 | > 100 | > 100 | > 100 | > 100 | > 100 | > 100 | 51.5 | > 100 | > 100 | 67 | > 100 | 57.1 | > 100 | > 100 |
| Cc1cc(N(CCOS(C)(=O)=O)CCOS(C)(=O)=O)ccc1C=Nc1ccc(-c2csc(-c3ccc(Br)cc3)n2)cc1 | > 87.9 | 26.4 | 41.7 | 61.6 | > 100 | > 80.2 | > 79.7 | 23.8 | > 100 | 36.9 |  |  |  |  |  |  |  |  |  |  |
| Nc1ccccc1C#Cc1ccccc1C#Cc1cnccn1 | 36.4 | 54.9 | 30.5 | > 100 | 50.2 | 25.1 | 30 | 84.8 | 31.7 |  | 17 | 21.1 | 16.8 | 48 | 14.8 | 11.7 | 15.2 | 24.6 | 17.3 |  |
| COc1ccc(C2C3=C(COC3=O)Oc3cc4c(cc32)OCO4)cc1 (stereo not given) | > 100 | 51.7 | > 100 | > 100 | > 100 |  | > 100 | 39.7 | > 100 | > 100 |  |  |  |  |  |  |  |  |  |  |
| CC1=Nc2ccccc2C12C(c1ccccc1)C(c1ccccc1)C(=O)N1c3ccccc3CC12 (stereo not given) | > 100 | > 100 | > 100 | > 100 | > 100 |  | > 100 | > 100 | > 100 | > 100 |  |  |  |  |  |  |  |  |  |  |
